From patent publication US12486254B2, “Uracil derivatives for stimulating read-through of premature termination codons” (Southern Research Institute, priority 2022, dated 2025) come the findings set out here.

One assay deals with W134X-CF#14 FRT. The assay is described as follows: Read-through of a premature termination codon, W134X-CF#14 FRT data, with G418. The format is cell-based. The note with it: in presence of G418. The method, then: (§1) The compounds shown in Table 1 were evaluated for their ability to stimulate read-through of a premature termination codon, and their respective activities are shown in Tables 2 and 3 below.

A further assay concerns G542X#10-HBE5x5. The assay is described as follows: Read-through of a premature termination codon, G542X#10-HBE5x5 (Table 3). The following applies: with G418. The format is cell-based. The method, then:
as §1

For `CCn1c(=O)c(C(=O)CN(C)Cc2ccc(C(=O)NC)cc2)c(N)n(Cc2ccccc2)c1=O` [1.2], the values for the EC50 in the assay on W134X-CF#14 FRT and in the assay on G542X#10-HBE5x5 were 109 µM and not below 100 µM, respectively.

Take `CCn1c(=O)c(C(=O)CN2CCC(c3ccccc3)C2)c(N)n(Cc2ccccc2)c1=O` (stereo not shown) [1.3]: the figures for the EC50 with W134X-CF#14 FRT and in the assay on G542X#10-HBE5x5 were 22.7 µM and not below 100 µM, respectively.

For `CCn1c(=O)c(C(=O)CN2CCN(c3ncccn3)CC2)c(N)n(Cc2ccccc2)c1=O` [1.4], the values for the EC50 in the assay on W134X-CF#14 FRT and in the assay with G542X#10-HBE5x5 were 99.9 µM and not below 100 µM, respectively.

In the case of `CCn1c(=O)c(C(=O)CN2CCc3cc(F)ccc3C2)c(N)n(Cc2ccccc2)c1=O` [1.7], the EC50 in the assay on W134X-CF#14 FRT is 32.1 µM; with G542X#10-HBE5x5, not below 100 µM.

As to `CCn1c(=O)c(C(=O)CNCC2CCCCO2)c(N)n(Cc2ccccc2)c1=O` (stereo not shown) [1.8], the results for the EC50 in the assay on W134X-CF#14 FRT and in the assay with G542X#10-HBE5x5 were 166 µM and not below 100 µM, respectively.

In the case of `CCn1c(=O)c(C(=O)CN2CCCC2C(=O)OC)c(N)n(Cc2ccccc2)c1=O` (stereo not shown) [1.12], the EC50 in the assay on W134X-CF#14 FRT is 46 µM; in the assay on G542X#10-HBE5x5, not below 100 µM.

Turning to `CCn1c(=O)c(C(=O)CNCc2ccccc2)c(N)n(Cc2ccccc2)c1=O` [1.14], the figures for the EC50 in the assay with W134X-CF#14 FRT and in the assay with G542X#10-HBE5x5 were 12.3 µM and not below 100 µM, respectively.

`CCOC(=O)C1CCCCN1CC(=O)c1c(N)n(Cc2ccccc2)c(=O)n(CC)c1=O` (stereo not shown) [1.22]: the EC50 in the assay on W134X-CF#14 FRT was 83.2 µM; in the assay with G542X#10-HBE5x5 it was not below 100 µM.

On to `CCn1c(=O)c(C(=O)CN2CCC[C@@H]2C(=O)OC)c(N)n(Cc2ccccc2)c1=O` [1.24], for which the EC50 in the assay with W134X-CF#14 FRT is 23.1 µM; in the assay with G542X#10-HBE5x5, not below 100 µM.

In the case of `CCn1c(=O)c(C(=O)CNc2nc3ccccc3[nH]2)c(N)n(Cc2ccccc2)c1=O` [1.29], the EC50 with W134X-CF#14 FRT stood at 11.7 µM; in the assay with G542X#10-HBE5x5 it was 62.3 µM.

In the case of `CCn1c(=O)c(C(=O)CN(Cc2ccccc2)C2CCCCC2)c(N)n(Cc2ccccc2)c1=O` [1.30], the EC50 came out at 67.5 µM in the assay with W134X-CF#14 FRT and 90.5 µM in the assay with G542X#10-HBE5x5.

`CCN(CC(N)=O)CC(=O)c1c(N)n(Cc2ccccc2)c(=O)n(CC)c1=O` [1.36]: the EC50 was 93.9 µM in the assay with W134X-CF#14 FRT and not below 100 µM in the assay on G542X#10-HBE5x5.

As for `NC(=O)[C@H]1CCCCN1CC(=O)c1c(N)n(Cc2ccc(F)cc2)c(=O)n(Cc2ccc(F)cc2)c1=O` [1.47, (2R)-1-[2-[4-amino-1,3-bis[(4-fluorophenyl)methyl]-2,6-dioxo-pyrimidin-5-yl]-2-oxo-ethyl]piperidine-2-carboxamide], the EC50 with W134X-CF#14 FRT worked out at 3.19 µM; with G542X#10-HBE5x5, 50 µM.

For the compound `CCn1c(=O)c(C(=O)CN2CCOCC2C(N)=O)c(N)n(Cc2ccccc2)c1=O` (stereo not shown) [1.53], the EC50 in the assay with W134X-CF#14 FRT and with G542X#10-HBE5x5 was not below 100 µM throughout.

With `CCn1c(=O)c(C(=O)CN(Cc2ncco2)C(C)C)c(N)n(Cc2ccccc2)c1=O` [1.56], the EC50 in the assay with W134X-CF#14 FRT and in the assay with G542X#10-HBE5x5 was not below 100 µM in each case.

Consider `CCn1c(=O)c(C(=O)CN(Cc2ncc[nH]2)C(C)C)c(N)n(Cc2ccccc2)c1=O` [1.57], for which the figures for the EC50 with W134X-CF#14 FRT and in the assay with G542X#10-HBE5x5 were 15.4 µM and not below 100 µM, respectively.

Take `CCn1c(=O)c(C(=O)CN2CCCCC2c2nc(C)no2)c(N)n(Cc2ccccc2)c1=O` (stereo not shown) [1.86]: the EC50 in the assay with W134X-CF#14 FRT is 56.1 µM; in the assay on G542X#10-HBE5x5 it was not below 100 µM.

As for `CCn1c(=O)c(C(=O)CN2CCCCC2C(=O)N2CCN(C)CC2)c(N)n(Cc2ccccc2)c1=O` (stereo not shown) [1.96], the values for the EC50 in the assay on W134X-CF#14 FRT and with G542X#10-HBE5x5 were 58.5 µM and not below 100 µM, respectively.

With `NC(=O)C1CCCCN1CC(=O)c1c(N)n(Cc2ccc(Cl)cc2)c(=O)n(Cc2ccc(Cl)cc2)c1=O` (stereo not shown) [1.107], the EC50 in the assay on W134X-CF#14 FRT came out at 4.52 µM; with G542X#10-HBE5x5, 7.03 µM.

Consider `CCn1c(=O)c(C(=O)CN2CCCCC2C(N)=O)c(N)n(Cc2cccs2)c1=O` (stereo not shown) [1.112], for which the EC50 in the assay on W134X-CF#14 FRT is 3.46 µM; in the assay on G542X#10-HBE5x5, not below 100 µM.

For the compound `CCn1c(=O)c(C(=O)CN2CCCCC2C(=O)N(C)C)c(N)n(Cc2cccs2)c1=O` (stereo not shown) [1.113], the EC50 with W134X-CF#14 FRT was 5.79 µM; in the assay with G542X#10-HBE5x5, not below 100 µM.

For the compound `CCn1c(=O)c(C(=O)CN2CCC(C)CC2C(N)=O)c(N)n(Cc2ccc(F)cc2)c1=O` (stereo not shown) [1.131], the EC50 is 4.7 µM with W134X-CF#14 FRT and not below 100 µM with G542X#10-HBE5x5.

For `CCn1c(=O)c(C(=O)CNC(C)C)c(N)n(Cc2ccc(F)cc2)c1=O` [1.138, 6-amino-3-ethyl-1-[(4-fluorophenyl)methyl]-5-[2-(isopropylamino)acetyl]pyrimidine-2,4-dione], the EC50 was 79.1 µM in the assay with W134X-CF#14 FRT and not below 100 µM with G542X#10-HBE5x5.

In the case of `NC(=O)C1CCCCN1CC(=O)c1c(N)n(Cc2ccc(F)cc2)c(=O)n(CC2CCC2)c1=O` (stereo not shown) [1.140], the EC50 with W134X-CF#14 FRT was 6.34 µM; in the assay on G542X#10-HBE5x5, not below 100 µM.

For `CCn1c(=O)c(C(=O)CN(CC(N)=O)C(C)C)c(N)n(Cc2ccc(F)cc2F)c1=O` [1.149], the values for the EC50 in the assay with W134X-CF#14 FRT and in the assay with G542X#10-HBE5x5 were 3.2 µM and 41.7 µM, respectively.

On to `Nc1c(C(=O)CN2CCCC[C@@H]2C(=O)N2CCCCC2)c(=O)n(Cc2ccc(F)cc2)c(=O)n1Cc1ccc(F)cc1` [1.152], for which the figures for the EC50 with W134X-CF#14 FRT and in the assay on G542X#10-HBE5x5 were 3.13 µM and 25 µM, respectively.

For `CCn1c(=O)c(C(=O)CN2CCCC[C@@H]2C(=O)NCC2CC2)c(N)n(Cc2ccccc2)c1=O` [1.158], the EC50 is 2.59 µM in the assay on W134X-CF#14 FRT and not below 100 µM with G542X#10-HBE5x5.

As to `CCn1c(=O)c(C(=O)CN2CCCCC2=O)c(N)n(Cc2ccc(F)cc2)c1=O` [1.165], the EC50 in the assay with W134X-CF#14 FRT and in the assay on G542X#10-HBE5x5 was not below 100 µM each time.

On to `CCn1c(=O)c(C(=O)CN2CCCCC2C(C)C)c(N)n(Cc2ccc(F)cc2)c1=O` (stereo not shown) [1.175], for which the EC50 in the assay on W134X-CF#14 FRT was 8.49 µM; in the assay on G542X#10-HBE5x5, not below 100 µM.

With `CCn1c(=O)c(C(=O)CN(CC(=O)N2CCCCC2)C(C)C)c(N)n(Cc2ccc(F)cc2)c1=O` [1.176], the values for the EC50 with W134X-CF#14 FRT and in the assay with G542X#10-HBE5x5 were 1.63 µM and not below 100 µM, respectively.

Consider `CCn1c(=O)c(C(=O)CN2CCCCC2CN(C)C)c(N)n(Cc2ccc(F)cc2)c1=O` (stereo not shown) [1.177], for which the EC50 in the assay on W134X-CF#14 FRT was 65.1 µM; with G542X#10-HBE5x5, not below 100 µM.

On to `CCn1c(=O)c(C(=O)CNc2cc(OC)c(OC)c(OC)c2)c(N)n(Cc2ccc(F)cc2)c1=O` [1.183], for which the values for the EC50 with W134X-CF#14 FRT and with G542X#10-HBE5x5 were 25.7 µM and not below 100 µM, respectively.

As to `CCn1c(=O)c(C(=O)CN2CCCC[C@@H]2c2nccn2C)c(N)n(Cc2ccc(F)cc2)c1=O` [1.190], the EC50 was 3.26 µM in the assay with W134X-CF#14 FRT and not below 100 µM in the assay with G542X#10-HBE5x5.

Regarding `CCn1c(=O)c(C(=O)CN2CCCC2)c(N)n(Cc2ccc(F)cc2)c1=O` [1.194], the EC50 was 29.7 µM with W134X-CF#14 FRT and not below 100 µM in the assay with G542X#10-HBE5x5.

Turning to `CCn1c(=O)c(C(=O)CN2CCCC[C@@H]2c2ncc[nH]2)c(N)n(Cc2ccc(F)cc2)c1=O` [1.196], the EC50 is 1.56 µM with W134X-CF#14 FRT and not below 100 µM in the assay with G542X#10-HBE5x5.

Consider `CCn1c(=O)c(C(=O)CN(CC(=O)N2CCC(F)(F)CC2)C(C)C)c(N)n(Cc2ccc(F)cc2)c1=O` [1.203], for which the EC50 in the assay on W134X-CF#14 FRT is 4.1 µM; in the assay on G542X#10-HBE5x5, not below 100 µM.

For `CCn1c(=O)c(C(=O)CNc2ccc(C(N)=O)cc2)c(N)n(Cc2ccc(F)cc2)c1=O` [1.206], the EC50 is 13 µM in the assay on W134X-CF#14 FRT and 18.1 µM in the assay on G542X#10-HBE5x5.

In the case of `CCn1c(=O)c(C(=O)CNc2ccccc2C(N)=O)c(N)n(Cc2ccc(F)cc2)c1=O` [1.207], the EC50 with W134X-CF#14 FRT is 35.7 µM; in the assay on G542X#10-HBE5x5, 26.2 µM.

For the compound `CC(C)n1c(=O)c(C(=O)CN2CCCC[C@@H]2C(N)=O)c(N)n(Cc2ccc(F)cc2)c1=O` [2.13], the EC50 with G542X#10-HBE5x5 is not below 30 µM.

In turn, `CCn1c(=O)c(C(=O)CN2CCCC[C@@H]2C(N)=O)c(N)n(Cc2ccc(OC(C)C)cc2)c1=O` [2.14] had an EC50 with G542X#10-HBE5x5 not below 30 µM.

In the assay with G542X#10-HBE5x5, `CCn1c(=O)c(C(=O)CN2CCCC[C@@H]2C(N)=O)c(N)n(Cc2nccn2C)c1=O` [2.15] yielded an EC50 not below 30 µM.

`CCn1c(=O)c(C(=O)CN2CCCC[C@@H]2C(N)=O)c(N)n(-c2cccc(F)c2)c1=O` [2.16]: the concentration giving a half-maximal response (EC50) with G542X#10-HBE5x5 is not below 30 µM.

`CCn1c(=O)c(C(=O)CN2CCCC[C@@H]2C(N)=O)c(N)n(Cc2ccc(F)c(Cl)c2)c1=O` [2.17] displayed an EC50 in the assay on G542X#10-HBE5x5 not below 30 µM.

The compound `CCn1c(=O)c(C(=O)CN2CCCC[C@@H]2C(N)=O)c(N)n(Cc2ccc(Cl)c(F)c2)c1=O` [2.18] displayed an EC50 in the assay on G542X#10-HBE5x5 not below 30 µM.

Take `CCn1c(=O)c(C(=O)CN(C(C)C)C(C)(C)C(N)=O)c(N)n(Cc2ccc(F)cc2)c1=O` [2.19]: the EC50 with G542X#10-HBE5x5 is not below 30 µM.

`CCn1c(=O)c(C(=O)CN2CCCC[C@@H]2C(N)=O)c(N)n(Cc2ccc(C#N)c(F)c2)c1=O` [2.20] yielded an EC50 in the assay with G542X#10-HBE5x5 not below 30 µM.

In turn, `CCn1c(=O)c(C(=O)CN2CCCC[C@@H]2C(N)=O)c(N)n(Cc2ccc(F)nc2)c1=O` [2.21] registered an EC50 with G542X#10-HBE5x5 not below 30 µM.

On to `CCn1c(=O)c(C(=O)CN2CCCC[C@@H]2C(N)=O)c(N)n(Cc2ccc(F)cn2)c1=O` [2.22], for which, in the assay on G542X#10-HBE5x5, the EC50 is not below 30 µM.

In the assay on G542X#10-HBE5x5, `CCn1c(=O)c(C(=O)CN2CCCC[C@@H]2C(N)=O)c(N)n(Cc2ccc(C#N)cc2F)c1=O` [2.23] came in with an EC50 not below 30 µM.

In the assay with G542X#10-HBE5x5, `CCn1c(=O)c(C(=O)CN2CCCC[C@@H]2C(N)=O)c(N)n(Cc2ccc(C(F)(F)F)nc2)c1=O` [2.24] yielded an EC50 not below 30 µM.
